# According to ChEMBL document CHEMBL1201862, “PubChem BioAssay data set” (2004):
#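 Compound exposure: 48 hours, 5 concentrations, 96-well plates. Here, GI50 denotes the concentration required for 50% inhibition of growth.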 Calls of active or inactive are those of the source. Cut-off read from the data, not from the text of the source: active = GI50 up to about 1.1 µM and inactive = higher.
# How the values were obtained:
# Assay in all cases: growth of human tumour cells (NCI), 48 h
# A498 = system: A498
# SK-MEL-2 = system: SK-MEL-2
# NCI-H522 = system: NCI-H522
# HCC 2998 = system: HCC 2998
# NCI-H23 = system: NCI-H23
# MDA-MB-435 = system: MDA-MB-435
# SK-MEL-28 = system: SK-MEL-28
# HCT-116 = system: HCT-116
# NCI-H226 = system: NCI-H226
# K562 = system: K562
# SN12C = system: SN12C
# SK-MEL-5 = system: SK-MEL-5
# SW-620 = system: SW-620
# Hs-578T = system: Hs-578T
# OVCAR-5 = system: OVCAR-5
# EKVX = system: EKVX
# LOX IMVI = system: LOX IMVI
# SK-OV-3 = system: SK-OV-3
# SNB-75 = system: SNB-75
# SF-539 = system: SF-539
# SF-295 = system: SF-295
# 786-0 = system: 786-0
# HOP-62 = system: HOP-62
# RPMI-8226 = system: RPMI-8226
# DU-145 = system: DU-145
# OVCAR-3 = system: OVCAR-3
# SF-268 = system: SF-268
# T47D = system: T47D
# MCF7 = system: MCF7
# HOP-92 = system: HOP-92
# U-251 = system: U-251
# COLO 205 = system: COLO 205
# OVCAR-4 = system: OVCAR-4
# KM12 = system: KM12
# MDA-MB-231 = system: MDA-MB-231
# NCI/ADR-RES = system: NCI/ADR-RES
# OVCAR-8 = system: OVCAR-8
# NCI-H460 = system: NCI-H460
# HCT-15 = system: HCT-15
# SR = system: SR
# SNB-19 = system: SNB-19
# IGROV-1 = system: IGROV-1
# ACHN = system: ACHN
# PC-3 = system: PC-3
# CAKI-1 = system: CAKI-1
# UACC-257 = system: UACC-257
# HT-29 = system: HT-29
# CCRF-CEM = system: CCRF-CEM
# MDA-N = system: MDA-N
# TK-10 = system: TK-10
# UO-31 = system: UO-31
# A549 = system: A549
# UACC-62 = system: UACC-62
# M14 = system: M14
# MOLT-4 = system: MOLT-4
# Malme-3M = system: Malme-3M
# RXF 393 = system: RXF 393
structure (smiles),measurement,setting,value
CCc1nc(N)nc(N)c1-c1ccc(Cl)c(N=[N+]=[N-])c1,GI50,A498,8.39 µM (inactive)
same,GI50,SK-MEL-2,14.6 µM (inactive)
same,GI50,NCI-H522,9.51 µM (inactive)
same,GI50,HCC 2998,9.62 µM (inactive)
same,GI50,NCI-H23,4.03 µM (inactive)
same,GI50,MDA-MB-435,2.84 µM (inactive)
same,GI50,SK-MEL-28,13.5 µM (inactive)
same,GI50,HCT-116,0.6 µM (active)
same,GI50,NCI-H226,22.7 µM (inactive)
same,GI50,K562,0.37 µM (active)
same,GI50,SN12C,12.6 µM (inactive)
same,GI50,SK-MEL-5,2.61 µM (inactive)
same,GI50,SW-620,1.6 µM (inactive)
same,GI50,Hs-578T,16.7 µM (inactive)
same,GI50,OVCAR-5,12.1 µM (inactive)
same,GI50,EKVX,2.75 µM (inactive)
same,GI50,LOX IMVI,2.21 µM (inactive)
same,GI50,SK-OV-3,31 µM (inactive)
same,GI50,SNB-75,22.1 µM (inactive)
same,GI50,SF-539,4.05 µM (inactive)
same,GI50,SF-295,2.09 µM (inactive)
same,GI50,786-0,3.44 µM (inactive)
same,GI50,HOP-62,16.7 µM (inactive)
same,GI50,RPMI-8226,8.87 µM (inactive)
same,GI50,DU-145,11.2 µM (inactive)
same,GI50,OVCAR-3,15.6 µM (inactive)
same,GI50,SF-268,9.35 µM (inactive)
same,GI50,T47D,28.5 µM (inactive)
same,GI50,MCF7,5.48 µM (inactive)
same,GI50,HOP-92,20.5 µM (inactive)
same,GI50,U-251,4.69 µM (inactive)
same,GI50,COLO 205,7.74 µM (inactive)
same,GI50,OVCAR-4,19.2 µM (inactive)
same,GI50,KM12,7.36 µM (inactive)
same,GI50,MDA-MB-231,15.6 µM (inactive)
same,GI50,NCI/ADR-RES,5.5 µM (inactive)
COC(C/C(=C/CO[Si](C(C)C)(C(C)C)C(C)C)C(=O)N(COCC[Si](C)(C)C)c1ccccc1I)OC,GI50,OVCAR-8,89.5 µM (inactive)
same,GI50,NCI-H460,33.4 µM (inactive)
same,GI50,A498,> 100 µM (inactive)
same,GI50,SK-MEL-2,14.9 µM (inactive)
same,GI50,HCT-15,41.1 µM
same,GI50,SR,> 100 µM (inactive)
same,GI50,SNB-19,26.1 µM (inactive)
same,GI50,HCC 2998,43.9 µM (inactive)
same,GI50,NCI-H23,17.3 µM (inactive)
same,GI50,IGROV-1,0.0247 µM (active)
same,GI50,MDA-MB-435,5.53 µM (inactive)
same,GI50,SK-MEL-28,14 µM (inactive)
same,GI50,HCT-116,13.2 µM (inactive)
same,GI50,ACHN,20.6 µM (inactive)
same,GI50,NCI-H226,36 µM (inactive)
same,GI50,K562,> 100 µM (inactive)
same,GI50,SN12C,71 µM (inactive)
same,GI50,SK-MEL-5,20.1 µM (inactive)
same,GI50,SW-620,33.5 µM (inactive)
same,GI50,Hs-578T,48.2 µM (inactive)
same,GI50,PC-3,28.4 µM (inactive)
same,GI50,OVCAR-5,32.4 µM (inactive)
same,GI50,CAKI-1,> 100 µM (inactive)
same,GI50,LOX IMVI,14.7 µM (inactive)
same,GI50,SK-OV-3,> 100 µM (inactive)
same,GI50,SNB-75,> 100 µM (inactive)
same,GI50,SF-295,4.58 µM (inactive)
same,GI50,UACC-257,20 µM (inactive)
same,GI50,786-0,31.4 µM (inactive)
same,GI50,HOP-62,50.9 µM (inactive)
same,GI50,HT-29,60.3 µM (inactive)
same,GI50,RPMI-8226,> 100 µM (inactive)
same,GI50,DU-145,> 100 µM (inactive)
same,GI50,CCRF-CEM,22.7 µM (inactive)
same,GI50,MDA-N,37.4 µM (inactive)
same,GI50,OVCAR-3,17.8 µM (inactive)
same,GI50,T47D,32.6 µM (inactive)
same,GI50,TK-10,63.1 µM (inactive)
same,GI50,HOP-92,42 µM (inactive)
same,GI50,U-251,22.8 µM (inactive)
same,GI50,UO-31,55.3 µM (inactive)
same,GI50,COLO 205,57.7 µM (inactive)
same,GI50,OVCAR-4,42.2 µM (inactive)
same,GI50,A549,37.2 µM (inactive)
same,GI50,KM12,31.8 µM (inactive)
same,GI50,MDA-MB-231,> 100 µM (inactive)
same,GI50,UACC-62,15.6 µM (inactive)
same,GI50,NCI/ADR-RES,> 100 µM (inactive)
same,GI50,M14,26.6 µM (inactive)
same,GI50,MOLT-4,16.2 µM (inactive)
CO[C@@](c1ccccc1)(c1nc(C#N)c(N)o1)C(F)(F)F,GI50,OVCAR-8,> 100 µM (inactive)
same,GI50,A498,> 100 µM (inactive)
same,GI50,SK-MEL-2,> 100 µM (inactive)
same,GI50,Malme-3M,> 100 µM (inactive)
same,GI50,HCT-15,85.9 µM
same,GI50,SNB-19,> 100 µM (inactive)
same,GI50,NCI-H522,26.6 µM (inactive)
same,GI50,HCC 2998,> 100 µM (inactive)
same,GI50,NCI-H23,> 100 µM (inactive)
same,GI50,IGROV-1,> 100 µM (inactive)
same,GI50,MDA-MB-435,> 100 µM (inactive)
same,GI50,SK-MEL-28,> 100 µM (inactive)
same,GI50,HCT-116,78.2 µM (inactive)
same,GI50,ACHN,> 100 µM (inactive)
same,GI50,NCI-H226,> 100 µM (inactive)
same,GI50,K562,33.7 µM (inactive)
same,GI50,SN12C,> 100 µM (inactive)
same,GI50,SK-MEL-5,> 100 µM (inactive)
same,GI50,SW-620,86.5 µM (inactive)
same,GI50,PC-3,> 100 µM (inactive)
same,GI50,RXF 393,> 100 µM (inactive)
same,GI50,EKVX,> 100 µM (inactive)
same,GI50,CAKI-1,> 100 µM (inactive)
same,GI50,LOX IMVI,> 100 µM (inactive)
same,GI50,SK-OV-3,> 100 µM (inactive)
same,GI50,SNB-75,20.5 µM (inactive)
same,GI50,SF-539,> 100 µM (inactive)
same,GI50,SF-295,> 100 µM (inactive)
same,GI50,UACC-257,85.5 µM (inactive)
same,GI50,786-0,> 100 µM (inactive)
same,GI50,HOP-62,> 100 µM (inactive)
same,GI50,RPMI-8226,36.3 µM (inactive)
same,GI50,DU-145,> 100 µM (inactive)
same,GI50,CCRF-CEM,26.5 µM (inactive)
same,GI50,MDA-N,> 100 µM (inactive)
same,GI50,OVCAR-3,> 100 µM (inactive)
same,GI50,T47D,> 100 µM (inactive)
same,GI50,TK-10,> 100 µM (inactive)
same,GI50,MCF7,> 100 µM (inactive)
same,GI50,HOP-92,44.7 µM (inactive)
same,GI50,U-251,> 100 µM (inactive)
same,GI50,UO-31,68.1 µM (inactive)
same,GI50,COLO 205,> 100 µM (inactive)
same,GI50,OVCAR-4,> 100 µM (inactive)
same,GI50,A549,> 100 µM (inactive)
same,GI50,KM12,> 100 µM (inactive)
same,GI50,MDA-MB-231,> 100 µM (inactive)
same,GI50,UACC-62,77.4 µM (inactive)
same,GI50,NCI/ADR-RES,> 100 µM (inactive)
same,GI50,M14,> 100 µM (inactive)
same,GI50,MOLT-4,82.2 µM (inactive)
CC(=O)O[C@H]1C(=O)[C@@]2(C)C(C(OC(=O)c3ccccc3)[C@]3(O)CC(OC(=O)[C@H](OC(=O)CCC(=O)O)C(NC(=O)c4ccccc4)c4ccccc4)C(C)=C1C3(C)C)C1(OC(C)=O)COC1C[C@@H]2OC(=O)CCC(=O)O (some centres undefined),GI50,UO-31,79.1 µM (inactive)
same,GI50,OVCAR-4,> 50.6 µM (inactive)
